# Measured values published in article PMC9203742 (Nature Communications, 2022).
# Values joined by “and” are separate entries in the source; they are usually repeats but may differ in a detail not shown here. Equal values may be shown once.
# Tests used:
# [1] = tested on: MLIs infected with AAV-hSyn-mGlu1^CBC; test: sAP-mediated currents (firing rate) of MLIs infected with AAV-hSyn-mGlu1^CBC; type: cell-based, mouse; conditions: 10 μM Pd(sulfo-bpy); P = 4.613 × 10^–5
# Experimental: To monitor the excitability of MLIs, sAP-mediated current responses were extracellulary recorded by a loose cell-attached voltage-clamp at a holding potential of 0 mV. Glass electrodes used for cell-attached recordings had resistances of 3–5 MΩ when filled with ACSF. The current recordings from AAV-infected cells were performed 1−2 weeks after infection. The EPSCs and sAP-mediated currents were recorded using an Axopatch 200B amplifier (Molecular Devices), and the pClamp system (version 9.2; Molecular Devices) was used for data acquisition and analysis. The signals were filtered at 1 kHz and digitized at 4 kHz for the evoked EPSCs and 10 kHz for the sAP-mediated currents.
# Injection of viral solutions was performed as described previously with slight modifications. Briefly, under deep anesthesia, with an intraperitoneal injection of medetomidine (0.3 mg/kg), midazolam (4.0 mg/kg), and butorphanol (5.0 mg/kg), 4 µL of the solutions containing AAV mixture were directly injected into the vermis of cerebellar lobules V-VIII (200-300 µm in depth, 12 µL/h in rate) of WT mice (C57BL/6J, P20-P30) using glass pipette (30–40 µm in diameter) and microinjector (Nanoliter; World Precision Instruments). In all, 1−2 week after injection, the mice were used for each experiment.
# [2] = tested on: GFP-positive Purkinje cells infected with AAV-L7-mGlu1^WT; test: chemLTD recording in GFP-positive Purkinje cells, slices infected with AAV-L7-mGlu1^WT; type: cell-based, mouse; conditions: for PF-EPSC amplitude normalized to time 0, individual Purkinje cells / PF-EPSC amplitude normalized to time 0, mean of cells: AAV-L7-mGlu1WT
# [3] = Solubility of Pd complexes in ACSF by UV-vis spectroscopy; conditions: 1 h at 4 °C
# [4] = biological target: T1, mGlu1(N264H) mutant (Rattus norvegicus, UniProt P23385, N264H); test: Fura-2 Ca2+ imaging in HEK293 cells expressing mGlu1(N264H); type: cell-based
# T1 construct: expressed in transfected cells; host or cells: HEK293
# T1 sequence (P23385 19-1199 N264H): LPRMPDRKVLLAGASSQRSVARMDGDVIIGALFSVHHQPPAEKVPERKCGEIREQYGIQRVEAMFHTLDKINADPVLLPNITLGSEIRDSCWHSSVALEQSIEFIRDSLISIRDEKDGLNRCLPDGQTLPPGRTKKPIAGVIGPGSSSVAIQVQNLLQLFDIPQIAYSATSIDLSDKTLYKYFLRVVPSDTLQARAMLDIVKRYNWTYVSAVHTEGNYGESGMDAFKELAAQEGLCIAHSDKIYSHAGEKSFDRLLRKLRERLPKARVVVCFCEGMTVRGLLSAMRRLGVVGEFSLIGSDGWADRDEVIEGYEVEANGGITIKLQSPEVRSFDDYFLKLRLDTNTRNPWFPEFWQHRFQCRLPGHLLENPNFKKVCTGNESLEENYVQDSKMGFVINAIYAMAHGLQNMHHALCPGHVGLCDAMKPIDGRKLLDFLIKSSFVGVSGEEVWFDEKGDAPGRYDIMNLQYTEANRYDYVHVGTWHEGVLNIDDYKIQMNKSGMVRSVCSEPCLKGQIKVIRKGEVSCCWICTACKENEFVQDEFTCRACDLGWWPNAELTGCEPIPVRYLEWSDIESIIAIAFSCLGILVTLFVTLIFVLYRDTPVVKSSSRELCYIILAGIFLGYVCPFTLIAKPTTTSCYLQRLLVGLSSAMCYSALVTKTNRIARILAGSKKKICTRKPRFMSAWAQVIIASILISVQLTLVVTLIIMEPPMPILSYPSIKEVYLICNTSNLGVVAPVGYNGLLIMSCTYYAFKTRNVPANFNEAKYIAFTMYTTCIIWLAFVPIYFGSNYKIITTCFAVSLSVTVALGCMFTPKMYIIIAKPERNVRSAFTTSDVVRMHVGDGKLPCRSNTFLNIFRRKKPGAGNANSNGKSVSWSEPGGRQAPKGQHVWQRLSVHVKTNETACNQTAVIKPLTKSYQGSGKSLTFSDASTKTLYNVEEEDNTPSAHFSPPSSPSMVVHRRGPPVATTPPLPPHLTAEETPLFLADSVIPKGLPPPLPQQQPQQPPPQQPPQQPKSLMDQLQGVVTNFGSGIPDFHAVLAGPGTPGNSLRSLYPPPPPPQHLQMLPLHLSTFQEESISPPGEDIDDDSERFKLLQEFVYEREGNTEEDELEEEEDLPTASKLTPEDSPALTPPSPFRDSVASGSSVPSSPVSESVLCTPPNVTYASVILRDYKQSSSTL
smiles,measurement,setting,value
Cc1ccnc(-c2cc(COCCCS(=O)(=O)[O-])ccn2)c1.[Cl][Pd][Cl].[Na+] [Pd(sulfo-bpy)],Firing rate of MLIs,[1],increased the firing rate
same,chemLTD: normalized PF-EPSC amplitude,"[2]; 1 μM Pd(sulfo-bpy), t = 31−35 min",88 ± 7%
same,"PF-EPSC amplitude normalized to time 0, individual Purkinje cells",[2]; Time 11 min,0.5479 and 0.8947 and 0.9287 and 0.866 and 0.7568 and 0.3484 and 0.5317
same,"PF-EPSC amplitude normalized to time 0, mean of cells",[2]; Time 11 min,0.6963
same,"PF-EPSC amplitude normalized to time 0, individual Purkinje cells",[2]; Time 12 min,0.6486 and 0.7811 and 0.7919 and 0.9348 and 0.7682 and 0.482 and 0.6188
same,"PF-EPSC amplitude normalized to time 0, mean of cells",[2]; Time 12 min,0.7179
same,"PF-EPSC amplitude normalized to time 0, individual Purkinje cells",[2]; Time 13 min,0.8009 and 0.7991 and 0.7966 and 0.9028 and 0.809 and 0.4767 and 0.682
same,"PF-EPSC amplitude normalized to time 0, mean of cells",[2]; Time 13 min,0.7525
same,"PF-EPSC amplitude normalized to time 0, individual Purkinje cells",[2]; Time 14 min,0.8571 and 0.8119 and 0.8301 and 0.9359 and 0.8385 and 0.4849 and 0.6984
same,"PF-EPSC amplitude normalized to time 0, mean of cells",[2]; Time 14 min,0.7795
same,"PF-EPSC amplitude normalized to time 0, individual Purkinje cells",[2]; Time 15 min,0.8756 and 0.8988 and 0.8051 and 0.8932 and 0.8452 and 0.5102 and 0.7309
same,"PF-EPSC amplitude normalized to time 0, mean of cells",[2]; Time 15 min,0.7942
same,"PF-EPSC amplitude normalized to time 0, individual Purkinje cells",[2]; Time 16 min,0.9159 and 0.9928 and 0.8396 and 0.8655 and 0.841 and 0.5112 and 0.7755
same,"PF-EPSC amplitude normalized to time 0, mean of cells",[2]; Time 16 min,0.8202
same,"PF-EPSC amplitude normalized to time 0, individual Purkinje cells",[2]; Time 17 min,0.9971 and 1.069 and 0.8238 and 0.8887 and 0.8439 and 0.5087 and 0.7457
same,"PF-EPSC amplitude normalized to time 0, mean of cells",[2]; Time 17 min,0.8396
same,"PF-EPSC amplitude normalized to time 0, individual Purkinje cells",[2]; Time 18 min,1.0288 and 1.119 and 0.837 and 0.8899 and 0.9043 and 0.5561 and 0.7949
same,"PF-EPSC amplitude normalized to time 0, mean of cells",[2]; Time 18 min,0.8757
same,"PF-EPSC amplitude normalized to time 0, individual Purkinje cells",[2]; Time 19 min,0.8877 and 1.0703 and 0.9503 and 0.893 and 0.9667 and 0.5652 and 0.7658
same,"PF-EPSC amplitude normalized to time 0, mean of cells",[2]; Time 19 min,0.8713
same,"PF-EPSC amplitude normalized to time 0, individual Purkinje cells",[2]; Time 20 min,1.078 and 1.198 and 0.844 and 0.865 and 1.008 and 0.5754 and 0.7572
same,"PF-EPSC amplitude normalized to time 0, mean of cells",[2]; Time 20 min,0.9036
same,"PF-EPSC amplitude normalized to time 0, individual Purkinje cells",[2]; Time 21 min,0.9655 and 1.126 and 0.8812 and 0.8773 and 1.052 and 0.5885 and 0.7582
same,"PF-EPSC amplitude normalized to time 0, mean of cells",[2]; Time 21 min,0.8926
same,"PF-EPSC amplitude normalized to time 0, individual Purkinje cells",[2]; Time 22 min,1.0065 and 1.121 and 0.9135 and 0.8951 and 1.02 and 0.5416 and 0.8122
same,"PF-EPSC amplitude normalized to time 0, mean of cells",[2]; Time 22 min,0.9014
same,"PF-EPSC amplitude normalized to time 0, individual Purkinje cells",[2]; Time 23 min,1.013 and 1.096 and 0.8837 and 0.8809 and 1.04 and 0.5776 and 0.8487
same,"PF-EPSC amplitude normalized to time 0, mean of cells",[2]; Time 23 min,0.9057
same,"PF-EPSC amplitude normalized to time 0, individual Purkinje cells",[2]; Time 24 min,1.0609 and 0.96 and 0.924 and 0.9136 and 1.045 and 0.5613 and 0.9388
same,"PF-EPSC amplitude normalized to time 0, mean of cells",[2]; Time 24 min,0.9148
same,"PF-EPSC amplitude normalized to time 0, individual Purkinje cells",[2]; Time 25 min,1.0868 and 0.9289
same,"PF-EPSC amplitude normalized to time 0, mean of cells",[2]; Time 25 min,0.9269
same,"PF-EPSC amplitude normalized to time 0, mean of cells",[2]; Time 26 min,0.8953
same,"PF-EPSC amplitude normalized to time 0, mean of cells",[2]; Time 27 min,0.9119
same,"PF-EPSC amplitude normalized to time 0, mean of cells",[2]; Time 28 min,0.9459
same,"PF-EPSC amplitude normalized to time 0, mean of cells",[2]; Time 29 min,0.9165
same,"PF-EPSC amplitude normalized to time 0, mean of cells",[2]; Time 30 min,0.8807
same,"PF-EPSC amplitude normalized to time 0, mean of cells",[2]; Time 31 min,0.8545
same,"PF-EPSC amplitude normalized to time 0, mean of cells",[2]; Time 32 min,0.8798
same,"PF-EPSC amplitude normalized to time 0, mean of cells",[2]; Time 33 min,0.8652
same,"PF-EPSC amplitude normalized to time 0, mean of cells",[2]; Time 34 min,0.8955
same,"PF-EPSC amplitude normalized to time 0, mean of cells",[2]; Time 35 min,0.9028
same,"PF-EPSC amplitude normalized to time 0, mean of cells",[2]; Time 36 min,0.8988
same,"PF-EPSC amplitude normalized to time 0, mean of cells",[2]; Time 37 min,0.876
same,Solubility: concentration over which linearity of absorbance at 312 nm is observed,[3],over 1 mM
same,"Ca2+ response, concentration dependence (Fig.4f)",[4]; 0.01 µM Pd complex,0.001442
same,"Ca2+ response, concentration dependence (Fig.4f)",[4]; 0.03 µM Pd complex,-0.01191
same,"Ca2+ response, concentration dependence (Fig.4f)",[4]; 0.1 µM Pd complex,-0.00118
same,"Ca2+ response, concentration dependence (Fig.4f)",[4]; 0.3 µM Pd complex,0.1279
same,"Ca2+ response, concentration dependence (Fig.4f)",[4]; 1 µM Pd complex,0.241
same,"Ca2+ response, concentration dependence (Fig.4f)",[4]; 3 µM Pd complex,0.3078
same,"Receptor activation (Ca2+ response, Δratio)",[4]; 3 μM Pd(bpy) derivative,successfully activated
same,"Ca2+ response, concentration dependence (Fig.4f)",[4]; 10 µM Pd complex,0.4466
same,"Ca2+ response, concentration dependence (Fig.4f)",[4]; 30 µM Pd complex,0.3481
same,EC50,"[4]; HEK293 cells, Fura-2, read-out: EC50, Ca2+ response (Δratio)",620 nM
same,"Ca2+ response to Pd complex, individual cells #1-#20 (Fig.4e)",[4]; single-cell values,0.8899 and 0.2578 and 0.9132 and -0.001662 and 0.6326 and 0.4158 and 0.6574 and 1.139 and -0.004669 and -0.01576 and 0.5967 and 0.1275 and -0.001162 and 0.09754 and -0.01851 and 1.312 and 1.093 and 0.7225 and 0.4683 and -0.003462
